In patent US8247573B2, “Substituted N-(2-mercaptopyridin-3-yl)amides as KCNQ2/3 modulators” (Gruenenthal GmbH, priority 2009, dated 2012):

Tests used:
KCNQ2/3 channels = target: T1, KCNQ2/3 channels (Homo sapiens, UniProt O43525+O43526); assay: Fluorescence assay using a voltage-sensitive dye (fluorimetry); assay type: cell-based; conditions: CHO-K1 cells expressing KCNQ2/3; for EC50: agonistic activity; for Emax: relative to retigabine = 100%, negative values = antagonistic, read-out: Fluorimetry % efficacy (I/EC50, retigabine = 100%)
T1 construct: expressed in transfected cells; host or cells: CHO-K1
Protocol: Pharmacological Experiments Fluorescence Assay Using a Voltage-Sensitive Dye
Human CHO-K1 cells expressing KCNQ2/3 channels are cultivated adherently at 37° C., 5% CO2 and 95% humidity in cell culture bottles (e.g. 80 cm^2 TC flasks, Nunc) with DMEM-high glucose (Sigma Aldrich, D7777) including 10% FCS (PAN Biotech, e.g. 3302-P270521) or alternatively MEM Alpha Medium (1×, liquid, Invitrogen, #22571), 10% foetal calf serum (FCS) (Invitrogen, #10270-106, heat-inactivated) and the necessary selection antibiotics.
Before being seeded out for the measurements, the cells are washed with a 1×DPBS buffer without Ca^2+/Mg^2+ (e.g. Invitrogen, #14190-094) and detached from the bottom of the culture vessel by means of Accutase (PAA Laboratories, #L11-007) (incubation with Accutase for 15 min at 37° C.). The cell count then present is determined using a CASY™ cell counter (TCC model, Schärfe System) in order subsequently to apply 20,000 to 30,000 cells/well/100 μl of the described nutrient medium, depending on density optimisation for the individual cell line, to 96-well measuring plates of the Corning™ CellBIND™ type (flat clear-bottom black polystyrene microplates, #3340). Incubation is then carried out for one hour at room temperature, without gassing or adjusting the humidity, followed by incubation for 24 hours at 37° C., 5% CO2 and 95% humidity.
The voltage-sensitive fluorescent dye from the Membrane Potential Assay Kit (Red™ bulk format part R8123 for FLIPR, MDS Analytical Technologies™) is prepared by dissolving the contents of a vessel of Membrane Potential Assay Kit Red Component A in 200 ml of extracellular buffer (ES buffer, 120 mM NaCl, 1 mM KCl, 10 mM HEPES, 2 mM CaCl2, 2 mM MgCl2, 10 mM glucose; pH 7.4). After removal of the nutrient medium, the cells are washed with 200 μl of ES buffer, then covered with a layer of 100 μl of the dye solution prepared above and incubated for 45 min at room temperature with exclusion of light.
The fluorescence measurements are carried out with a BMG Labtech FLUOstar™, BMG Labtech NOVOstar™ or BMG Labtech POLARstar™ instrument (525 nm excitation, 560 nm emission, bottom-read mode). After incubation of the dye, 50 μl of the substances to be tested in the desired concentrations, or 50 μl of ES buffer for control purposes, are introduced into separate cavities of the measuring plate and incubated for 30 min at room temperature whilst being shielded from light. The fluorescence intensity of the dye is then measured for 5 min and the fluorescence value F1 of each well is thus determined at a given, constant time. 15 μl of a […] KCl solution […] are then added to each well. The change in fluorescence is subsequently measured until all relevant measured values have been obtained (mainly […]). At a given time after KCl application, a fluorescence value F2 is determined, in this case at the time of the fluorescence peak.
For calculation, the fluorescence intensity F2 is compared with the fluorescence intensity F1, and the agonistic activity of the target compound on the potassium channel is determined therefrom. F2 and F1 are calculated as follows: […]
In order to determine whether a substance has an agonistic activity,
[formula] is determined by adding to the reaction batch only the buffer solution instead of the substance to be tested, determining the value F1K of the fluorescence intensity, adding the potassium ions as described above and measuring a value F2K of the fluorescence intensity. Then F2K and F1K are calculated as follows: […]
A substance has an agonistic activity on the potassium channel if
Independently of the comparison of
[formula] it is also possible to conclude that a target compound has an agonistic activity if an increase in
[formula] is to be observed as the dosage of the target compound increases.
Calculations of EC50 values are carried out with the aid of Prism v4.0 software (GraphPad Softwares™).

mice = assay: Formalin test in mice; assay type: in vivo; conditions: 4.64 mg/kg, phase 2 (chronic pain), change versus vehicle control
Protocol: The formalin test (Dubuisson, D. and Dennis, S. G., 1977, Pain, 4, 161-174) is a model for acute and chronic pain. A single formalin injection into the dorsal side of one rear paw is used to induce a biphase nociceptive response in experimental animals allowed to move freely, and the response is recorded by observation of three clearly distinguishable behaviour patterns. The response comprises two phases: phase 1=immediate response (duration up to 10 min; shaking of paw, licking), phase 2=delayed response (after a rest phase; likewise shaking of paw, licking; duration up to 60 min). […] In the experiments presented here the chronic pain component (phase 2) was evaluated.
Formalin is administered subcutaneously in a volume of 20 μl and a concentration of 1% into the dorsal side of the right rear paw of each animal. The specific behavioural changes, such as lifting, shaking or licking the paw (score 3, Dubuisson & Dennis, 1977), were observed and recorded during the observation period of 21 to 24 min after formalin injection. […]
Based on the quantification of the pain behaviour, the effect of the substance in the formalin test was determined as the change in comparison to the control as a percentage. […]

With `O=C(Cc1cccs1)Nc1cccnc1SCCS(=O)(=O)c1cccc(C(F)(F)F)c1` [Example 3, 2-Thiophen-2-yl-N-[2-[2-[[3-(trifluoromethyl)phenyl]sulfonyl]-ethylsulfanyl]-pyridin-3-yl]acetamide] the EC50 (KCNQ2/3 channels) was 0.031 µM, the Emax (KCNQ2/3 channels) was 164% and the “Formalin test in mice IV Effect @ dose [mg/kg]” value (mice) was 87% @ 4.64.
`O=C(CCC1CCCC1)Nc1cccnc1SCCS(=O)(=O)c1cccc(C(F)(F)F)c1` [Example 28, 3-Cyclopentyl-N-[2-[2-[[3-(trifluoromethyl)phenyl]sulfonyl]-ethylsulfanyl]-pyridin-3-yl]propionamide] gave an EC50 (KCNQ2/3 channels) of 0.277 µM and an Emax (KCNQ2/3 channels) of 152%.
With `O=C(CC1CCc2ccccc2C1)Nc1cccnc1SCCS(=O)(=O)c1cccc(C(F)(F)F)c1` (stereo not shown) [Example 52, 2-(1,2,3,4-Tetrahydronaphthalen-2-yl)-N-[2-[2-[[3-(trifluoromethyl)phenyl]sulfonyl]-ethylsulfanyl]-pyridin-3-yl]acetamide] the EC50 (KCNQ2/3 channels) was 0.208 µM and the Emax (KCNQ2/3 channels) was 59%.
`O=C(CC1CCCCCC1)Nc1cccnc1SCCS(=O)(=O)c1cccc(C(F)(F)F)c1` [Example 49, 2-Cycloheptyl-N-[2-[2-[[3-(trifluoromethyl)phenyl]sulfonyl]-ethylsulfanyl]-pyridin-3-yl]acetamide] showed an EC50 (KCNQ2/3 channels) of 0.019 µM and an Emax (KCNQ2/3 channels) of 108%.
Work on `O=C(Cc1ccc(O)cc1)Nc1cccnc1SCCS(=O)(=O)c1cccc(C(F)(F)F)c1` [Example 13, 2-(4-Hydroxyphenyl)-N-[2-[2-[[3-(trifluoromethyl)phenyl]sulfonyl]-ethylsulfanyl]-pyridin-3-yl]acetamide] yielded an Emax (KCNQ2/3 channels) of 46%.
Work on `O=C(Cc1ccccc1O)Nc1cccnc1SCCS(=O)(=O)c1cccc(C(F)(F)F)c1` [Example 12, 2-(2-Hydroxyphenyl)-N-[2-[2-[[3-(trifluoromethyl)phenyl]sulfonyl]-ethylsulfanyl]-pyridin-3-yl]acetamide] yielded an EC50 (KCNQ2/3 channels) of 0.168 µM and an Emax (KCNQ2/3 channels) of 141%.
For `O=C(Nc1cccnc1SCCS(=O)(=O)c1ccccc1)c1ccccc1` [Example 4, N-[2-[2-(Benzenesulfonyl)-ethylsulfanyl]-pyridin-3-yl]benzamide], the Emax (KCNQ2/3 channels) was 55%.
